Source: patent publication US20240043404A1 (AbbVie Inc., priority 2009, published 2024)
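Further: acute lymphoblastic leukemia line RS4,11, EC50 derived from percentage of viable cells after treatment relative to untreated controls, cell killing taken as a measure of Bcl-2 inhibition.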

Each compound was assayed on RS4;11 cells (assay: RS4;11 cell viability assay (CellTiter Glo)). Settings: Homo sapiens, RS4-11, 48 h, 50,000 cells per well, 10% human serum, 48 hours; read-out: RS4; 11 EC50 Values.
Assay type: cell-based, human
Procedure: The acute lymphoblastic leukemia (ALL) cell line RS4;11 was used as the primary human cell line to assess the cellular activity of Bcl-2 selective agents in vitro and their efficacy in vivo.
Cell cytotoxicity EC50 values were assessed using CellTiter Glo (Promega) according to the manufacturer's recommendations. The EC50 values were determined as a percentage of viable cells following treatment compared to the untreated control cells.
`CC1(C)CCC(CN2CCN(c3ccc(C(=O)NS(=O)(=O)c4ccc(NCC(F)(F)F)c([N+](=O)[O-])c4)c(Oc4cnc5[nH]ccc5c4)c3)CC2)=C(c2ccc(Cl)cc2)C1` [Example 26, 4-(4-{[2-(4-chlorophenyl)-4,4-dimethylcyclohex-1-en-1-yl]methyl}piperazin-1-yl)-N-({3-nitro-4-[(2,2,2-trifluoroethyl)amino]phenyl}sulfonyl)-2-(1H-pyrrolo[2,3-b]pyridin-5-yloxy)benzamide] was tested, and the EC50 was 58.9 nM. `CC1(C)CCC(CC2CCN(c3ccc(C(=O)NS(=O)(=O)c4ccc(NCC5CCOCC5)c([N+](=O)[O-])c4)c(Oc4cnc5[nH]ccc5c4)c3)CC2)C(c2ccc(Cl)cc2)C1` (centres unmarked) [Example 296, 4-(4-{[2-(4-chlorophenyl)-4,4-dimethylcyclohexyl]methyl}piperidin-1-yl)-N-({3-nitro-4-[(tetrahydro-2H-pyran-4-ylmethyl)amino]phenyl}sulfonyl)-2-(1H-pyrrolo[2,3-b]pyridin-5-yloxy)benzamide] showed an EC50 of 769 nM. Work on `CC1(C)CCC(CN2CCN(c3ccc(C(=O)NS(=O)(=O)c4ccc(NCc5cccc(OC(F)F)c5)c([N+](=O)[O-])c4)c(Oc4cnc5[nH]ccc5c4)c3)CC2)=C(c2ccc(Cl)cc2)C1` [Example 187, 4-(4-{[2-(4-chlorophenyl)-4,4-dimethylcyclohex-1-en-1-yl]methyl}piperazin-1-yl)-N-[(4-{[3-(difluoromethoxy)benzyl]amino}-3-nitrophenyl)sulfonyl]-2-(1H-pyrrolo[2,3-b]pyridin-5-yloxy)benzamide] yielded an EC50 of 215 nM. In the case of `CC1(C)CCC(CN2CCN(c3ccc(C(=O)NS(=O)(=O)c4ccc(NCC5(N6CCOCC6)CCCCC5)c([N+](=O)[O-])c4)c(Oc4cnc5[nH]ccc5c4)c3)CC2)=C(c2ccc(Cl)cc2)C1` [Example 99, 4-(4-{[2-(4-chlorophenyl)-4,4-dimethylcyclohex-1-en-1-yl]methyl}piperazin-1-yl)-N-[(4-{[(1-morpholin-4-ylcyclohexyl)methyl]amino}-3-nitrophenyl)sulfonyl]-2-(1H-pyrrolo[2,3-b]pyridin-5-yloxy)benzamide], the EC50 is reported as 1390 nM. For `CC1(C)CCC(c2ccc(Cl)cc2)=C(CN2CCN(c3ccc(C(=O)NS(=O)(=O)c4cnc(OCC5CCOCC5)c(C#N)c4)c(Oc4cnc5[nH]ccc5c4)c3)CC2)C1` [Example 76, 4-(4-{[2-(4-chlorophenyl)-5,5-dimethylcyclohex-1-en-1-yl]methyl}piperazin-1-yl)-N-{[5-cyano-6-(tetrahydro-2H-pyran-4-ylmethoxy)pyridin-3-yl]sulfonyl}-2-(1H-pyrrolo[2,3-b]pyridin-5-yloxy)benzamide], the EC50 was 511 nM. With `CC1(C)CCC(CN2CCN(c3ccc(C(=O)NS(=O)(=O)c4cnc(OCC5(F)CCOCC5)c(Cl)c4)c(Oc4cnc5[nH]ccc5c4)c3)CC2)=C(c2ccc(Cl)cc2)C1` [Example 96, N-({5-chloro-6-[(4-fluorotetrahydro-2H-pyran-4-yl)methoxy]pyridin-3-yl}sulfonyl)-4-(4-{[2-(4-chlorophenyl)-4,4-dimethylcyclohex-1-en-1-yl]methyl}piperazin-1-yl)-2-(1H-pyrrolo[2,3-b]pyridin-5-yloxy)benzamide] the EC50 was 43.6 nM. `CC1(C)CCC(CN2CCN(c3ccc(C(=O)NS(=O)(=O)c4ccc(N[C@@H]5CCN(C(CF)CF)C5)c([N+](=O)[O-])c4)c(Oc4cnc5[nH]ccc5c4)c3)CC2)=C(c2ccc(Cl)cc2)C1` [Example 207, 4-(4-{[2-(4-chlorophenyl)-4,4-dimethylcyclohex-1-en-1-yl]methyl}piperazin-1-yl)-N-{[4-({(3R)-1-[2-fluoro-1-(fluoromethyl)ethyl]pyrrolidin-3-yl}amino)-3-nitrophenyl]sulfonyl}-2-(1H-pyrrolo[2,3-b]pyridin-5-yloxy)benzamide] showed an EC50 of 3.76 nM. `CC1(C)CCC(CN2CCN(c3ccc(C(=O)NS(=O)(=O)c4ccc(NCC5COCCN5C5CCC5)c([N+](=O)[O-])c4)c(Oc4cnc5[nH]ccc5c4)c3)CC2)=C(c2ccc(Cl)cc2)C1` (centres unmarked) [Example 170, 4-(4-{[2-(4-chlorophenyl)-4,4-dimethylcyclohex-1-en-1-yl]methyl}piperazin-1-yl)-N-[(4-{[(4-cyclobutylmorpholin-3-yl)methyl]amino}-3-nitrophenyl)sulfonyl]-2-(1H-pyrrolo[2,3-b]pyridin-5-yloxy)benzamide] gave an EC50 of 125 nM. Compound `CN(C)CCCOc1ccc(CNc2ccc(S(=O)(=O)NC(=O)c3ccc(N4CCN(CC5=C(c6ccc(Cl)cc6)CC(C)(C)CC5)CC4)cc3Oc3cnc4[nH]ccc4c3)cc2[N+](=O)[O-])cc1` [Example 197, 4-(4-{[2-(4-chlorophenyl)-4,4-dimethylcyclohex-1-en-1-yl]methyl}piperazin-1-yl)-N-{[4-({4-[3-(dimethylamino)propoxy]benzyl}amino)-3-nitrophenyl]sulfonyl}-2-(1H-pyrrolo[2,3-b]pyridin-5-yloxy)benzamide] has an EC50 of 12.5 nM. In the case of `CC1(C)CCC(CN2CCN(c3ccc(C(=O)NS(=O)(=O)c4ccc(OCC5CCN(C6COC6)CC5)c(Cl)c4)c(Oc4cnc5[nH]ccc5c4)c3)CC2)=C(c2ccc(Cl)cc2)C1` [Example 309, N-[(3-chloro-4-{[1-(oxetan-3-yl)piperidin-4-yl]methoxy}phenyl)sulfonyl]-4-(4-{[2-(4-chlorophenyl)-4,4-dimethylcyclohex-1-en-1-yl]methyl}piperazin-1-yl)-2-(1H-pyrrolo[2,3-b]pyridin-5-yloxy)benzamide], the EC50 is reported as 52.4 nM. In the case of `CC1(C)CCC(CN2CCN(c3ccc(C(=O)NS(=O)(=O)c4ccc(N[C@@H]5CCOC5)c([N+](=O)[O-])c4)c(Oc4cnc5[nH]ccc5c4)c3)CC2)=C(c2ccc(Cl)cc2)C1` [Example 238, 4-(4-{[2-(4-chlorophenyl)-4,4-dimethylcyclohex-1-en-1-yl]methyl}piperazin-1-yl)-N-({3-nitro-4-[(3R)-tetrahydrofuran-3-ylamino]phenyl}sulfonyl)-2-(1H-pyrrolo[2,3-b]pyridin-5-yloxy)benzamide], the EC50 is reported as 103 nM. `CC1(C)CCC(CN2CCN(c3ccc(C(=O)NS(=O)(=O)c4ccc(NC5CCN(C6CC6)CC5)c(S(=O)(=O)C(F)(F)F)c4)c(Oc4cnc5[nH]ccc5c4)c3)CC2)=C(c2ccc(Cl)cc2)C1` [Example 190, 4-(4-{[2-(4-chlorophenyl)-4,4-dimethylcyclohex-1-en-1-yl]methyl}piperazin-1-yl)-N-({4-[(1-cyclopropylpiperidin-4-yl)amino]-3-[(trifluoromethyl)sulfonyl]phenyl}sulfonyl)-2-(1H-pyrrolo[2,3-b]pyridin-5-yloxy)benzamide] showed an EC50 of 551 nM. `CC1(C)CCC(CN2CCN(c3ccc(C(=O)NS(=O)(=O)c4ccc(OCC5COCCO5)c([N+](=O)[O-])c4)c(Oc4ccc5[nH]ccc5c4)c3)CC2)=C(c2ccc(Cl)cc2)C1` (centres unmarked) [Example 92, 4-(4-{[2-(4-chlorophenyl)-4,4-dimethylcyclohex-1-en-1-yl]methyl}piperazin-1-yl)-N-{[4-(1,4-dioxan-2-ylmethoxy)-3-nitrophenyl]sulfonyl}-2-(1H-indol-5-yloxy)benzamide] was tested, and the EC50 was 80.9 nM. For `CC1(C)CCC(CN2CCN(c3ccc(C(=O)NS(=O)(=O)c4ccc(NCC5CN(CCF)CCO5)c([N+](=O)[O-])c4)c(Oc4cnc5[nH]ccc5c4)c3)CC2)=C(c2ccc(Cl)cc2)C1` (centres unmarked) [Example 165, 4-(4-{[2-(4-chlorophenyl)-4,4-dimethylcyclohex-1-en-1-yl]methyl}piperazin-1-yl)-N-{[4-({[4-(2-fluoroethyl)morpholin-2-yl]methyl}amino)-3-nitrophenyl]sulfonyl}-2-(1H-pyrrolo[2,3-b]pyridin-5-yloxy)benzamide], the EC50 was 5.1 nM. With `CC1(C)CCC(CN2CCN(c3ccc(C(=O)NS(=O)(=O)c4ccc(NCC5CCN(C6COC6)CC5)c([N+](=O)[O-])c4)c(Oc4cnc5[nH]ccc5c4)c3)CC2)=C(c2ccc(Cl)cc2)C1` [Example 163, 4-(4-{[2-(4-chlorophenyl)-4,4-dimethylcyclohex-1-en-1-yl]methyl}piperazin-1-yl)-N-[(3-nitro-4-{[(1-oxetan-3-ylpiperidin-4-yl)methyl]amino}phenyl)sulfonyl]-2-(1H-pyrrolo[2,3-b]pyridin-5-yloxy)benzamide] the EC50 was 4.32 nM. With `CC1(C)CCC(CN2CCN(c3ccc(C(=O)NS(=O)(=O)c4ccc(N[C@@H]5CCN(C6CCOC(C)(C)C6)C5)c([N+](=O)[O-])c4)c(Oc4cnc5[nH]ccc5c4)c3)CC2)=C(c2ccc(Cl)cc2)C1` (stereo partly drawn) [Example 131, 4-(4-{[2-(4-chlorophenyl)-4,4-dimethylcyclohex-1-en-1-yl]methyl}piperazin-1-yl)-N-[(4-{[(3R)-1-(2,2-dimethyltetrahydro-2H-pyran-4-yl)pyrrolidin-3-yl]amino}-3-nitrophenyl)sulfonyl]-2-(1H-pyrrolo[2,3-b]pyridin-5-yloxy)benzamide] the EC50 was 12.7 nM. `CC1(C)CCC(CN2CCN(c3ccc(C(=O)NS(=O)(=O)c4ccc(OCC5CCOCC5)c([N+](=O)[O-])c4)c(Oc4cnc5[nH]ccc5c4)c3)CC2)=C(c2ccc(Cl)cc2)C1` [Example 24, 4-(4-{[2-(4-chlorophenyl)-4,4-dimethylcyclohex-1-en-1-yl]methyl}piperazin-1-yl)-N-{[3-nitro-4-(tetrahydro-2H-pyran-4-ylmethoxy)phenyl]sulfonyl}-2-(1H-pyrrolo[2,3-b]pyridin-5-yloxy)benzamide] gave an EC50 of 9.83 nM. With `CC1(C)CCC(CN2CCN(c3ccc(C(=O)NS(=O)(=O)c4ccc(OCC5(F)CCOCC5)c(S(=O)(=O)C(F)(F)F)c4)c(Oc4cnc5[nH]ccc5c4)c3)CC2)=C(c2ccc(Cl)cc2)C1` [Example 220, 4-(4-{[2-(4-chlorophenyl)-4,4-dimethylcyclohex-1-en-1-yl]methyl}piperazin-1-yl)-N-({4-[(4-fluorotetrahydro-2H-pyran-4-yl)methoxy]-3-[(trifluoromethyl)sulfonyl]phenyl}sulfonyl)-2-(1H-pyrrolo[2,3-b]pyridin-5-yloxy)benzamide] the EC50 was greater than 1000 nM. Compound `CC1(C)CCC(CN2CCN(c3ccc(C(=O)NS(=O)(=O)c4ccc(OCC5(F)CCOCC5)c(Cl)c4)c(Oc4cnc5[nH]ccc5c4)c3)CC2)=C(c2ccc(Cl)cc2)C1` [Example 286, N-({3-chloro-4-[(4-fluorotetrahydro-2H-pyran-4-yl)methoxy]phenyl}sulfonyl)-4-(4-{[2-(4-chlorophenyl)-4,4-dimethylcyclohex-1-en-1-yl]methyl}piperazin-1-yl)-2-(1H-pyrrolo[2,3-b]pyridin-5-yloxy)benzamide] has an EC50 of 34.5 nM.

Same assay, conditions: Homo sapiens, RS4-11, Table 4, selected compounds in U.S. Pat. Application No. 12/631404; read-out: RS4; 11 EC50
With `CC1(C)CCC(CN2CCN(c3ccc(C(=O)NS(=O)(=O)c4ccc(OCC5COCCO5)c([N+](=O)[O-])c4)c(Oc4ccc5[nH]ccc5c4)c3)CC2)=C(c2ccc(Cl)cc2)C1` (centres unmarked) [Example 92, 4-(4-{[2-(4-chlorophenyl)-4,4-dimethylcyclohex-1-en-1-yl]methyl}piperazin-1-yl)-N-{[4-(1,4-dioxan-2-ylmethoxy)-3-nitrophenyl]sulfonyl}-2-(1H-indol-5-yloxy)benzamide] the EC50 was 81 nM.
